Key:
Format in all cases: in vivo
Heliothis virescens = assay: Tobacco budworm (Heliothis virescens) test, eggs on insect diet in 96-well microtiter plates; settings: 120 h, egg and larval mortality, 5 days, read-out: mortality in comparison with untreated controls
Experimental: B.2 Tobacco Budworm (Heliothis virescens)
For evaluating control of tobacco budworm (Heliothis virescens), the test unit consisted of 96-well-microtiter plates containing an insect diet and 15-25 H. virescens eggs.
The compounds were formulated using a solution containing 75% v/v water and 25% v/v DMSO. Different concentrations of formulated compounds were sprayed onto the insect diet at 10 μl, using a custom-built micro atomizer, at two replications.
After application, microtiter plates were incubated at about 28±1° C. and about 80±5% relative humidity for 5 days. Egg and larval mortality was then visually assessed.

Myzus persicae = assay: Green peach aphid (Myzus persicae) systemic test, artificial diet in 96-well microtiter plates; settings: 72 h, adult aphids on treated diet, 3 days, read-out: mortality in comparison with untreated controls
Description: B.1 Green Peach Aphid (Myzus persicae)
For evaluating control of green peach aphid (Myzus persicae) through systemic means, the test unit consisted of 96-well-microtiter plates containing liquid artificial diet under an artificial membrane.
The compounds were formulated using a solution containing 75% v/v water and 25% v/v DMSO. Different concentrations of formulated compounds were pipetted into the aphid diet, using a custom built pipetter, at two replications.
After application, 5-8 adult aphids were placed on the artificial membrane inside the microtiter plate wells. The aphids were then allowed to suck on the treated aphid diet and incubated at about 23±1° C. and about 50±5% relative humidity for 3 days. Aphid mortality and fecundity was then visually assessed.

Spodoptera eridania = assay: Southern armyworm (Spodoptera eridania), 2nd instar larvae, foliar spray on lima bean plants; settings: 96 h, 2nd instar larvae on sprayed lima bean, 4 days after treatment, read-out: mortality in comparison with untreated controls
Experimental: B.4. Southern Armyworm (Spodoptera eridania), 2nd Instar Larvae
The active compounds were formulated by a Tecan liquid handler in 100% cyclohexanone as a 10,000-ppm solution supplied in tubes. The 10,000-ppm solution was serially diluted in 100% cyclohexanone to make interim solutions. These served as stock solutions for which final dilutions were made by the Tecan in 50% acetone:50% water (v/v) into 10 or 20 ml glass vials. A non-ionic surfactant (Kinetic®) was included in the solution at a volume of 0.01% (v/v). The vials were then inserted into an automated electrostatic sprayer equipped with an atomizing nozzle for application to plants/insects. Lima bean plants (variety Sieva) were grown 2 plants to a pot and selected for treatment at the 1st true leaf stage. Test solutions were sprayed onto the foliage by an automated electrostatic plant sprayer equipped with an atomizing spray nozzle. The plants were dried in the sprayer fume hood and then removed from the sprayer. Each pot was placed into perforated plastic bags with a zip closure. Ten to 11 armyworm larvae were placed into the bag and the bags zipped closed. Test plants were maintained in a growth room at about 25° C. and about 20-40% relative humidity for 4 days, avoiding direct exposure to fluorescent light (14:10 light:dark photoperiod) to prevent trapping of heat inside the bags. Mortality and reduced feeding were assessed 4 days after treatment, compared to untreated control plants.

Aedes aegypti = assay: whole plant or invertebrate; settings: 48 h, larval mortality, 2 days, read-out: mortality in comparison with untreated controls
Experimental: B.5 Yellow Fever Mosquito (Aedes aegypti)
For evaluating control of yellow fever mosquito (Aedes aegypti) the test unit consisted of 96-well-microtiter plates containing 200 μl of tap water per well and 5-15 freshly hatched A. aegypti larvae.
The active compounds were formulated using a solution containing 75% (v/v) water and 25% (v/v) DMSO. Different concentrations of formulated compounds or mixtures were sprayed onto the insect diet at 2.5 μl, using a custom-built micro atomizer, at two replications.
After application, microtiter plates were incubated at 28±1° C., 80±5% RH for 2 days. Larval mortality was then visually assessed.

Anthonomus grandis = assay: Boll weevil (Anthonomus grandis) test, eggs on insect diet in 96-well microtiter plates; settings: 120 h, egg and larval mortality, 5 days, read-out: mortality in comparison with untreated controls
Experimental: B.3 Boll Weevil (Anthonomus grandis)
For evaluating control of boll weevil (Anthonomus grandis), the test unit consisted of 96-well-microtiter plates containing an insect diet and 5-10 A. grandis eggs.
The compounds were formulated using a solution containing 75% v/v water and 25% v/v DMSO. Different concentrations of formulated compounds were sprayed onto the insect diet at 5 μl, using a custom-built micro atomizer, at two replications.
After application, microtiter plates were incubated at about 25±1° C. and about 75±5% relative humidity for 5 days. Egg and larval mortality was then visually assessed.

CCS(=O)(=O)c1cc(-c2ccc(F)cc2)cnc1-c1cc(=O)n2c(cc(C(F)(F)F)n2C)n1 [Compound I-3, 5-[3-ethylsulfonyl-5-(4-fluorophenyl)-2-pyridyl]-1-methyl-2-(trifluoro-methyl)pyrazolo[1,5-a]pyrimidin-7-one]
≥ 75%: mortality at 2500 ppm (Heliothis virescens) | mortality at 2500 ppm (Myzus persicae) | mortality at 300 ppm (Spodoptera eridania) | mortality at 2500 ppm (Aedes aegypti) | mortality at 2500 ppm (Anthonomus grandis)

CCS(=O)(=O)c1cc(Br)cnc1-c1nc2cc(C(F)(F)F)n(C)n2c(=O)c1C [Compound I-16, 5-(5-bromo-3-ethylsulfonyl-2-pyridyl)-1,6-dimethyl-2-(trifluoromethyl)pyrazolo[1,5-a]pyrimidin-7-one]
≥ 75%: mortality at 2500 ppm (Myzus persicae) | mortality at 2500 ppm (Anthonomus grandis)

CCS(=O)(=O)c1cc(Br)cnc1-c1cc(=O)n2c(cc(C(F)(F)F)n2C)n1 [Compound I-1, 5-(5-bromo-3-ethylsulfonyl-2-pyridyl)-1-methyl-2-(trifluoromethyl)pyrazolo[1,5-a]pyrimidin-7-one]
≥ 75%: mortality at 2500 ppm (Heliothis virescens) | mortality at 2500 ppm (Myzus persicae) | mortality at 2500 ppm (Aedes aegypti) | mortality at 2500 ppm (Anthonomus grandis)

CCS(=O)(=O)c1cc(-c2ccc(OC(F)F)cc2)cnc1-c1cc(=O)n2c(cc(C(F)(F)F)n2C)n1 [Compound I-4, 5-[5-[4-(difluoromethoxy)phenyl]-3-ethylsulfonyl-2-pyridyl]-1-methyl-2-(trifluoromethyl)pyrazolo[1,5-a]pyrimidin-7-one]
≥ 75%: mortality at 2500 ppm (Heliothis virescens) | mortality at 2500 ppm (Myzus persicae) | mortality at 300 ppm (Spodoptera eridania) | mortality at 2500 ppm (Aedes aegypti) | mortality at 2500 ppm (Anthonomus grandis)

CCS(=O)(=O)c1cc(Br)ccc1-c1cc(=O)n2c(cc(C(F)(F)F)n2C)n1 [Compound I-7, 5-(4-bromo-2-ethylsulfonyl-phenyl)-1-methyl-2-(trifluoromethyl)pyrazolo[1,5-a]pyrimidin-7-one]
≥ 75%: mortality at 2500 ppm (Myzus persicae) | mortality at 300 ppm (Spodoptera eridania) | mortality at 2500 ppm (Aedes aegypti)

CCS(=O)(=O)c1cc(N=S(C)(C)=O)cnc1-c1cc(=O)n2c(cc(C(F)(F)F)n2C)n1 [Compound I-2, 5-[5-[[dimethyl(oxo)-λ6-sulfanylidene]amino]-3-ethylsulfonyl-2-pyridyl]-1-methyl-2-(trifluoromethyl)pyrazolo[1,5-a]pyrimidin-7-one]
≥ 75%: mortality at 2500 ppm (Myzus persicae) | mortality at 2500 ppm (Aedes aegypti) | mortality at 2500 ppm (Anthonomus grandis)

— patent US20250026757A1, “Bicyclic Compounds for the Control of Invertebrate Pests” (BASF SE, priority 2021, published 2025)
